{
  "source": "patent US11980669B2",
  "about": "“Capped and uncapped antibody cysteines, and their use in antibody-drug conjugation” (PFIZER INC., priority 2015, dated 2024)",
  "test_system": "stable CHO cells",
  "experiment": "Cell viability and cell counts of stable CHO cells cultured with capping reagent in the medium",
  "type": "cell-based",
  "conditions": "0.5 mM DTNB in CD-CHO medium, 72 hrs",
  "protocol": "Ellman's reagent, 5,5′-dithiobis-(2-nitrobeoic acid) (DTNB) was examined as a capping agent to add thionitrobenzoate (TNB). (DTNB is commonly used for assaying free thiol content in proteins. This reagent cannot disrupt disulfide bond but can react with free Cys. It has been used to treat partially-reduced antibody materials to generate four free Cys for drug conjugation.) A CHO cell line stably expressing the cysteine mutant antibody was grown to 4×10e6/ml in CD-CHO medium, then switched to fresh CD-CHO medium, fresh CD-CHO medium with 0.5 mM DTNB, or the triple-low medium as a control. Cells were cultured in these conditions for 72 hrs, cell viability was measured and conditioned medium was harvested. […] Protein expression in the DTNB-containing medium was also 5-fold lower than those in CD-CHO. Antibody purification from ProA column and protein migration in SDS-PAGE from all three culture conditions materials were nearly identical, as shown in FIG. 5A. All three samples in SEC analysis show monomer species, with very little aggregation.\n19.8 mM MTFB, dissolved in DMSO, was added to 50 ml cell culture at a final concentration of 0.25 mM for 24 hr. Cell viability was measured and conditioned medium was harvested. […] Antibody HAB08L443C at such condition was subsequently purified by a 1 ml-ProA column (FIG. 12B). […]",
  "data": [
    {"smiles": "O=C(O)c1cc(SSc2ccc([N+](=O)[O-])c(C(=O)O)c2)ccc1[N+](=O)[O-]", "note": "[DTNB, 5,5′-dithiobis-(2-nitrobeoic acid)]", "values": [
      {"measurement": "Cell viability", "value": 40, "unit": "%"}
    ]}
  ]
}
